Assay results: patent US7670613B2, “Androgen modulators” (Pfizer Inc., priority 2004, dated 2010)

Each compound was assayed against T1, hAR (Homo sapiens, UniProt P10275) (assay: Competitive binding analysis on baculovirus/Sf9 generated hAR extracts with 3H-DHT tracer). Conditions: AR Binding IC50, hAR extract, 1 nM 3H-DHT, one hour at 4° C.; mean of multiple tests.
T1 construct: made in house; host or cells: baculovirus/Sf9 insect cells
T1 sequence (P10275 1-920): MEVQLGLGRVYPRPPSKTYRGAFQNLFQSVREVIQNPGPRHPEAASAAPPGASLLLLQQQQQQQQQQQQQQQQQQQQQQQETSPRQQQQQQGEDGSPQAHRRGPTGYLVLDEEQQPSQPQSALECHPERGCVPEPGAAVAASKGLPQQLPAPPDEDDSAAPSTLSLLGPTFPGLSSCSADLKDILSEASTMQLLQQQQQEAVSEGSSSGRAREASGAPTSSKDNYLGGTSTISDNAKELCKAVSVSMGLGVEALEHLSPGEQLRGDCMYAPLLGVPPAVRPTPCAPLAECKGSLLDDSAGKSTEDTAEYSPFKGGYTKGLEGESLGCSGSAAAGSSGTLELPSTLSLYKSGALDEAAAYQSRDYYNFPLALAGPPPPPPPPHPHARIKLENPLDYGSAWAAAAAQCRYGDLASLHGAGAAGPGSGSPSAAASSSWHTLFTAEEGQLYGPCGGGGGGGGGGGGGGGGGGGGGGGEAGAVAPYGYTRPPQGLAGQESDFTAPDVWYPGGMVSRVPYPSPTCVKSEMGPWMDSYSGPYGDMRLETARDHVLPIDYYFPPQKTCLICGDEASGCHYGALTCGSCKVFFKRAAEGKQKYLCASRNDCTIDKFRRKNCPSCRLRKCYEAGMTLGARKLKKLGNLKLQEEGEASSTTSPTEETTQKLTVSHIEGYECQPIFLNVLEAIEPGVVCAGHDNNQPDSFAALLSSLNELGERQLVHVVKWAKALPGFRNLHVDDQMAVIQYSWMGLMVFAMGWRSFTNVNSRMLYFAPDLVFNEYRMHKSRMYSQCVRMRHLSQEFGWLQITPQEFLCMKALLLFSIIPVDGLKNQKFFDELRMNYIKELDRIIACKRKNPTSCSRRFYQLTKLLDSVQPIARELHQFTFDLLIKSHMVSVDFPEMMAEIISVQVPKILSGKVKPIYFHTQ
Procedure: The description below describes how the assay was carried out.
Competitive binding analysis was performed on baculovirus/Sf9 generated hAR extracts in the presence or absence of different concentrations of test agent and a fixed concentration of ^3H-dihydrotestosterone (^3H-DHT) as tracer. This binding assay method is a modification of a protocol previously described (Liao S., et. al. J. Steroid Biochem. 20:11-17 1984). Briefly, progressively decreasing concentrations of compounds are incubated in the presence of hAR extract (Chang et al. P.N.A.S. Vol. 89, pp. […], 1992), hydroxylapatite, and 1 nM ^3H-DHT for one hour at 4° C. Subsequently, the binding reactions are washed three times to completely remove excess unbound ^3H-DHT. hAR bound ^3H-DHT levels are determined in the presence of compounds (i.e. competitive binding) and compared to levels bound when no competitor is present (i.e. maximum binding). Compound binding affinity to the hAR is expressed as the concentration of compound at which one half of the maximum binding is inhibited.

SMILES	IC50 [nM]
CO[C@H]1CCC[C@@H]1Oc1ccc(C#N)c(Cl)c1 (relative stereo) [Example 35, 2-Chloro-4-(trans-2-methoxy-cyclopentyloxy)-benzonitrile]	97
CO[C@@H]1CCCC[C@H]1Oc1ccc(C#N)c(Cl)c1 (relative stereo) [Example 39, 2-Chloro-4-(trans-2-methoxy-cyclohexyloxy)-benzonitrile]	76
CC1CCCC(Oc2ccc(C#N)c(Cl)c2)C1C (centres unmarked) [Example 20, 2-Chloro-4-(2,3-dimethyl-cyclohexyloxy)-benzonitrile]	227
CC1CCCCC1Oc1ccc(C#N)c(Cl)c1 (centres unmarked) [Example 28, 2-Chloro-4-(2-methyl-cyclohexyloxy)-benzonitrile]	49
N#Cc1ccc(OC2CCCCC2c2ccccc2)cc1Cl (centres unmarked) [Example 29, 2-Chloro-4-(2-phenyl-cyclohexyloxy)-benzonitrile]	89
C[C@H]1CCCC[C@@H]1Oc1ccc(C#N)c(Cl)c1 [Example 30, 2-Chloro-4-(2-(S)-methyl-(S)-cyclohexyloxy)-benzonitrile]	24
N#Cc1ccc(O[C@@H]2CCCC[C@@H]2c2ccccc2)cc1Cl [Example 56, (1R,2R)-2-Chloro-4-(2-phenyl-cyclohexyloxy)-benzonitrile]	366
N#Cc1ccc(O[C@@H]2CCCC[C@H]2c2ccccc2)cc1Cl [Example 58, (1R,2S) 2-Chloro-4-(2-phenyl-cyclohexyloxy)-benzonitrile]	278

Same assay, conditions: hAR extract, 1 nM 3H-DHT, one hour at 4° C.; mean of multiple tests; read-out: AR Binding IC50

SMILES	IC50 [nM]
C[C@H]1CCC[C@@H]1Oc1ccc(C#N)c(C(F)(F)F)c1 (relative stereo) [Example 2, 4-(trans-2-Methyl-cyclopentyloxy)-2-trifluoromethyl-benzonitrile]	153
C=CCO[C@H]1CCC[C@H]1Oc1ccc(C#N)c(Cl)c1 (relative stereo) [Example 37, 4-(cis-2-Allyloxy-cyclopentyloxy)-2-chloro-benzonitrile]	134
C=CCO[C@H]1CCC[C@@H]1Oc1ccc(C#N)c(Cl)c1 (relative stereo) [Example 38, 4-(trans-2-Allyloxy-cyclopentyloxy)-2-chloro-benzonitrile]	120
N#Cc1ccc(OC2CCCCCC2)cc1C(F)(F)F [Example 5, 4-cycloheptyloxy-2-trifluoromethyl-benzonitrile]	319
CC1CCCC(Oc2ccc(C#N)c(C(F)(F)F)c2)C1C (centres unmarked) [Example 6, 4-(2,3-Dimethyl-cyclohexyloxy)-2-trifluoromethyl-benzonitrile]	356
C=C(C)[C@H]1CC[C@H](C)[C@@H](Oc2ccc(C#N)c(C(F)(F)F)c2)C1 [Example 13, (1S,2S,5S)-4-(5-Isopropenyl-2-methyl-cyclohexyloxy)-2-trifluoromethyl-benzonitrile]	102
COC1CCC(Oc2ccc(C#N)c(C(F)(F)F)c2)CC1 (centres unmarked) [Example 15, 4-(4-Methoxy-cyclohexyloxy)-2-trifluoromethyl-benzonitrile]	243
C[C@H]1CC[C@@H](Oc2ccc(C#N)c(C(F)(F)F)c2)CC1 [Example 16]	479
C[C@H]1CCC[C@@H]1Oc1ccc(C#N)c(C(F)(F)F)c1 [Example 17, (1S,2S)-4-(2-Methyl-cyclopentyloxy)-2-trifluoromethyl-benzonitrile]	252
N#Cc1ccc(OC2CCC2)cc1C(F)(F)F [Example 18, 4-Cyclobutoxy-2-trifluoromethyl-benzonitrile]	466
C[C@@H]1CCCC[C@H]1Oc1ccc(C#N)cc1Cl [Example 42, (1R,2R)-3-Chloro-4-(2-methyl-cyclohexyloxy)benzonitrile]	343
CC1(C)CC(Oc2ccc(C#N)cc2Cl)CC(C)(C)C1 [Example 44, 3-Chloro-4-(3,3,5,5-tetramethyl-cyclohexyloxy)-benzonitrile]	410
C[C@@H]1CCC[C@H](Oc2ccc(C#N)c(Cl)c2)C1 [Example 48, (1S,3R)-2-Chloro-4-(3-methyl-cyclohexyloxy)-benzonitrile]	218
CC1CCC(Oc2ccc(C#N)c(Cl)c2)CC1C (centres unmarked) [Example 51, 2-Chloro-4-(3,4-dimethyl-cyclohexyloxy)-benzonitrile]	442
C[C@H]1CC[C@@H](Oc2ccc(C#N)c(Cl)c2)CC1 [Example 54, (1S,4S)-2-Chloro-4-(4-methyl-cyclohexyloxy)-benzonitrile]	356
C[C@H]1CC[C@H](Oc2ccc(C#N)cc2Cl)CC1 [Example 59, (1S,4R)-3-Chloro-4-(4-methyl-cyclohexyloxy)-benzonitrile]	341
C[C@@H]1CCC[C@H](Oc2ccc(C#N)cc2Cl)C1 [Example 60, (1S,3R)3-Chloro-4-(3-methyl-cyclohexyloxy)-benzonitrile]	388
CC(C)[C@H]1CC[C@H](C)C[C@@H]1Oc1ccc(C#N)cc1Cl [Example 61, (1S,2R,5S)-3-Chloro-4-(2-isopropyl-5methyl-cyclohexyloxy)-benzonitrile]	257
CC1CCCC(Oc2ccc(C#N)cc2Cl)C1C (centres unmarked) [Example 63, 3-Chloro-4-(2,3-dimethyl-cyclohexyloxy)-benzonitrile]	374
C[C@H]1CC(Oc2ccc(C#N)c(Cl)c2)C[C@H](C)C1 (stereo partly drawn) [Example 65, (3R,5R)-2-Chloro-4-(trans)-(3,5-dimethyl-cyclohexyloxy)-benzonitrile]	437
C[C@@H]1CCC[C@H]1Oc1ccc(C#N)cc1Cl [Example 66, (1R,2R)-3-Chloro-4-(2-methyl-cyclopentyloxy)-benzonitrile]	402
